Usually IC50 stands for the concentration that inhibits the measured activity by half. A low value points to inhibition by little substance.

The experiment has as its target T1, TrkA (tropomyosin 3-TrkA fusion protein, TPM3-NTRK1) (Homo sapiens, UniProt P04629).
T1 construct: tropomyosin 3-TrkA fusion protein (TPM3-NTRK1), endogenous in KM12 cells
The experiment in a line: competition with [18F]TRACK radiotracer uptake in intact KM12 cells. The class given is cell-based.

T1 sequence (P04629 405-796 limits assumed): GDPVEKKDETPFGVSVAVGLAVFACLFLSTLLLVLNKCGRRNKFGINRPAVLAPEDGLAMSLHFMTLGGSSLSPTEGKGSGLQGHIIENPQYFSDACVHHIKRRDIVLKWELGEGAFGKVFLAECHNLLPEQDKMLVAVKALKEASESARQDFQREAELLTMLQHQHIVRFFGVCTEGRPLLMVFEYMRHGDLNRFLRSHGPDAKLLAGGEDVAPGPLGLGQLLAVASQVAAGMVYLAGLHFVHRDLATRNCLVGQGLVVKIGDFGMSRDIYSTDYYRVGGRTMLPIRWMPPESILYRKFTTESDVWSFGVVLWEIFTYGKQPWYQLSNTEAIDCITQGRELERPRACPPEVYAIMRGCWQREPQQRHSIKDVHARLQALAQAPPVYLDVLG
T1 sequence (P06753 2-285 partner): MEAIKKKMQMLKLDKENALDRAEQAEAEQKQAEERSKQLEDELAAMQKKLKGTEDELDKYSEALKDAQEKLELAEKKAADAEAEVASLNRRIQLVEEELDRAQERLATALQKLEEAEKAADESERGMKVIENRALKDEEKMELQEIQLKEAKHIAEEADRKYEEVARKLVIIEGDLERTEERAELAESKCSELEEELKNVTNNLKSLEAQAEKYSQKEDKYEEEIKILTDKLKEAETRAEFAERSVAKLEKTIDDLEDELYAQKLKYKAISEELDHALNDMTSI

`O=C(Nc1ccc(F)c(F)c1)c1cnc2ccc(N3CCC[C@@H]3c3cccc(F)c3)nn12` [TRACK] had a half-inhibitory concentration (IC50) of 29.4 ± 9.4 nM.

(Values after paper PMC9339071, “Toward in vivo proof of binding of ^18F-labeled inhibitor [^18F]TRACK to peripheral tropomyosin receptor kinases” (EJNMMI Research, 2022).)
